According to patent US20240228468A1, “N-(6-((OCTAHYDROCYCLOPENTA[C]PYRROL-5-YI)AMINO)PYRIDAZIN-3-YL)PHENYL)CARBOXAMIDE AND (6- ((OCTAHYDROCYCLOPENTA[C]PYRROL-5-YL)AMINO)PYRIDAZIN-3-YL)BENZAMIDE DERIVATIVES AS MACHR M4 ANTAGONISTS FOR THE TREATMENT OF NEURODEGENERATIVE DISORDERS” (Vanderbilt University, priority 2021, published 2024):

Target: T1, Human M4 (Homo sapiens, UniProt P08173)
T1 construct: expressed in transfected cells; host or cells: CHO-K1 (ATCC), co-transfected with chimeric G protein Gqi5
T1 sequence (P08173 1-479): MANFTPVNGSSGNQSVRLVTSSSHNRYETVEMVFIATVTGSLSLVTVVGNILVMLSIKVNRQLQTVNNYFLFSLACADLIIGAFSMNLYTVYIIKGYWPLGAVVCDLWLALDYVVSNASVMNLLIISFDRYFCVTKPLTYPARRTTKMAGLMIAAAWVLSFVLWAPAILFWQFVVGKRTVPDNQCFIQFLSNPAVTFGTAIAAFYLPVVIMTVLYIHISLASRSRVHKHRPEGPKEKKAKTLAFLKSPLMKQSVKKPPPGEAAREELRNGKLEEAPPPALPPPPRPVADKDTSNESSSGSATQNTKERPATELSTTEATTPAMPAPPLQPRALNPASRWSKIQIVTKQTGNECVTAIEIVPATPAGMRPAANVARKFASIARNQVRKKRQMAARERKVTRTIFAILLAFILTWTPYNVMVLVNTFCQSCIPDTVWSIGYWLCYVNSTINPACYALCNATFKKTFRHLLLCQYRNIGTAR
Experiment: mAChR M4 cell-based functional assay (calcium flux, antagonism of EC80 acetylcholine response)
Conditions: M4/Gqi5/CHO-K1 cells; for remaining activity at 30 µM / Human M4 Emin (% ACh maximum at 30 μM): % ACh maximum at 30 μM; for remaining activity at 30 µM: read-out: Human M4 Emin (% ACh maximum at 30 μM); for IC50: concentration-dependent decrease of the response elicited by an EC80 concentration of acetylcholine
In short: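 CHO-K1 cells stably expressing human M4 with chimeric Gqi5, Fluo-4 loaded; calcium flux read on FDSS. Compound (10-point, 1:3 series) added first, then EC20 acetylcholine at 143 s and EC80 at 268 s. IC50 from concentration-dependent decrease of EC80 response, four-parameter logistic fit.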

| SMILES | remaining activity at 30 µM [%] | IC50 [nM] | Human M4 Emin (% ACh maximum at 30 μM) [%] |
| --- | --- | --- | --- |
| O=C(Nc1cc(F)c(F)c(-c2ccc(N[C@H]3C[C@@H]4CN(CC5CCOCC5)C[C@@H]4C3)nn2)c1)C1(O)CCC1 [Compound A13, N-(3,4-difluoro-5-(6-(((3aR,5s,6aS)-2-((tetrahydro-2H-pyran-4-yl)methyl)octahydrocyclopenta[c]pyrrol-5-yl)amino)pyridazin-3-yl)phenyl)-1-hydroxycyclobutane-1-carboxamide] | 4 | 64 |  |
| [2H]C([2H])(C1CCOCC1)N1C[C@H]2C[C@H](Nc3ccc(-c4cccc(NC(=O)CC)c4)nn3)C[C@H]2C1 [Compound A57, N-(3-(6-(((3aR,5s,6aS)-2-((tetrahydro-2H-pyran-4-yl)methyl-d2)octahydrocyclopenta[c]pyrrol-5-yl)amino)pyridazin-3-yl)phenyl)propionamide] | 3 | 37 |  |
| O=C(c1cc(F)c(F)c(-c2ccc(N[C@H]3C[C@@H]4CN(CC5CCOCC5)C[C@@H]4C3)nn2)c1)N1CCOCC1 [Compound A10, (3,4-difluoro-5-(6-(((3aR,5s,6aS)-2-((tetrahydro-2H-pyran-4-yl)methyl)octahydrocyclopenta[c]pyrrol-5-yl)amino)pyridazin-3-yl)phenyl)(morpholino)methanone] | 3 | 82 |  |
| [2H]C([2H])([C@H]1CCCOC1)N1C[C@H]2C[C@H](Nc3ccc(-c4cccc(C(=O)NC)c4)nn3)C[C@H]2C1 [Compound A78, N-methyl-3-(6-(((3aR,5s,6aS)-2-(((R)-tetrahydro-2H-pyran-3-yl)methyl-d2)octahydrocyclopenta[c]pyrrol-5-yl)amino)pyridazin-3-yl)benzamide] | 8 | 570 |  |
| [2H]C([2H])(C1CC(C)(C)OC(C)(C)C1)N1C[C@H]2C[C@H](Nc3ccc(-c4cccc(C(=O)NC)c4)nn3)C[C@H]2C1 [Compound A76, N-methyl-3-(6-(((3aR,5s,6aS)-2-((2,2,6,6-tetramethyltetrahydro-2H-pyran-4-yl)methyl-d2)octahydrocyclopenta[c]pyrrol-5-yl)amino)pyridazin-3-yl)benzamide] | 4 | 99 |  |

Further lines, results first:

| remaining activity at 30 µM [%] | IC50 [nM] | Human M4 Emin (% ACh maximum at 30 μM) [%] | SMILES |
| --- | --- | --- | --- |
|  | 0.4 | 4 | [2H]C([2H])(C1CCOCC1)N1C[C@H]2C[C@H](Nc3ccc(-c4ccc(NC(C)=O)cc4)nn3)C[C@H]2C1 (single isomer, unassigned) [Compound B1] |
| 4 | 47 |  | N#CCC(=O)Nc1cc(F)c(F)c(-c2ccc(N[C@H]3C[C@@H]4CN(CC5CCOCC5)C[C@@H]4C3)nn2)c1 [Compound A16, 2-cyano-N-(3,4-difluoro-5-(6-(((3aR,5s,6aS)-2-((tetrahydro-2H-pyran-4-yl)methyl)octahydrocyclopenta[c]pyrrol-5-yl)amino)pyridazin-3-yl)phenyl)acetamide] |
|  | 120 | 4 | [2H]C([2H])([2H])C(=O)Nc1ccccc1-c1ccc(N[C@H]2C[C@@H]3CN(CC4CCOCC4)C[C@@H]3C2)nn1 [Compound B3, N-(2-(6-(((3aR,5s,6aS)-2-((tetrahydro-2H-pyran-4-yl)methyl)octahydrocyclopenta [c]pyrrol-5-yl)amino)pyridazin-3-yl)phenyl) acetamide-2,2,2-d3] |
| 3 | 2.5 |  | [2H]C([2H])(C1CCOCC1)N1C[C@H]2C[C@H](Nc3ccc(-c4ccc(NC(=O)CC)cc4)nn3)C[C@H]2C1 [Compound A40, N-(4-(6-(((3aR,5s,6aS)-2-((tetrahydro-2H-pyran-4-yl)methyl-d2)octahydrocyclopenta[c]pyrrol-5-yl)amino)pyridazin-3-yl)phenyl)propionamide] |
